Horizontal activity, Ki and Ratio data for nine compounds are collected here from ChEMBL document CHEMBL1134746, “[3-cis-3,5-Dimethyl-(1-piperazinyl)alkyl]-bis-(4'-fluorophenyl)amine analogues as novel probes for the dopamine transporter” (Bioorg Med Chem Lett, 2001).

Assay [1] has as its system Mus musculus. Put plainly: Tested for rate of horizontal activity during a 30-min period after administration of compound at a concentration of 100 mg/kg. It counts as functional.
For assay [2], the system named is Mus musculus. Put plainly: Tested for rate of horizontal activity during a 30-min period after administration of compound at a concentration of 3 mg/kg. The format is functional.
Assay [3] concerns Mus musculus. As to the kind of experiment: Tested for rate of horizontal activity during a 30-min period after administration of compound at a concentration of 30 mg/kg. The format is functional.
Assay [4] has as its system Mus musculus. Put plainly: Tested for rate of horizontal activity during a 30-min period after administration of compound at a concentration of 10 mg/kg. It counts as functional.
Assay [5] deals with Mus musculus. As to the kind of experiment: Tested for rate of horizontal activity during a 30-min period after administration of compound at a concentration of 5 mg/kg. It counts as functional.
Assay [6] has as its system Mus musculus. As to the kind of experiment: Tested for rate of horizontal activity during a 30-min period after administration of compound at a concentration of 50 mg/kg. The format is functional.
Assay [7] concerns the target Sodium-dependent serotonin transporter (Rattus norvegicus, UniProt P31652). As to the kind of experiment: Binding affinity at Serotonin transporter using [3H]citalopram as radioligand from rat brain.
The target in assay [8] is Norepinephrine transporter (Rattus norvegicus, UniProt Q9WTR4). As to the kind of experiment: Binding affinity at norepinephrine transporter using [3H]nisoxetine as radioligand from rat brain.
Sequence of Norepinephrine transporter (Q9WTR4 whole entry): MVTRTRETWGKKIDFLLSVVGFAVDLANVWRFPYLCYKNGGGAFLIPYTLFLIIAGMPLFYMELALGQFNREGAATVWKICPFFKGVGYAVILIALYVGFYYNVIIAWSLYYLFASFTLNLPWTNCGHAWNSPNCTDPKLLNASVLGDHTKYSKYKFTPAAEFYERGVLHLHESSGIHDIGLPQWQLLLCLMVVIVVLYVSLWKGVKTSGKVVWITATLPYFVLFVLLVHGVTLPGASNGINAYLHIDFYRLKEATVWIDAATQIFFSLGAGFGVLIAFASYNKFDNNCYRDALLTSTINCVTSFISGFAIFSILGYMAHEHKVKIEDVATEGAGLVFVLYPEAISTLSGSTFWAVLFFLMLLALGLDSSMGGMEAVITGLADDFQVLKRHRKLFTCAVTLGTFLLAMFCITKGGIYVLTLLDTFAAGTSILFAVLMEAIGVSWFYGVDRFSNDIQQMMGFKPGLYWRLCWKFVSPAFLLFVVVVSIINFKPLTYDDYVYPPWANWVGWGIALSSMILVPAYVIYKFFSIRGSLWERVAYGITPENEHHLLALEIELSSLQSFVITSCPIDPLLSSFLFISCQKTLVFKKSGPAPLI
Assay [9] deals with Sodium-dependent dopamine transporter (Rattus norvegicus, UniProt P23977). Put plainly: Binding affinity at Dopamine transporter by displacing [3H]WIN-35428 from rat caudate putamen. It counts as tissue-based.
Sequence of Sodium-dependent dopamine transporter (P23977 whole entry): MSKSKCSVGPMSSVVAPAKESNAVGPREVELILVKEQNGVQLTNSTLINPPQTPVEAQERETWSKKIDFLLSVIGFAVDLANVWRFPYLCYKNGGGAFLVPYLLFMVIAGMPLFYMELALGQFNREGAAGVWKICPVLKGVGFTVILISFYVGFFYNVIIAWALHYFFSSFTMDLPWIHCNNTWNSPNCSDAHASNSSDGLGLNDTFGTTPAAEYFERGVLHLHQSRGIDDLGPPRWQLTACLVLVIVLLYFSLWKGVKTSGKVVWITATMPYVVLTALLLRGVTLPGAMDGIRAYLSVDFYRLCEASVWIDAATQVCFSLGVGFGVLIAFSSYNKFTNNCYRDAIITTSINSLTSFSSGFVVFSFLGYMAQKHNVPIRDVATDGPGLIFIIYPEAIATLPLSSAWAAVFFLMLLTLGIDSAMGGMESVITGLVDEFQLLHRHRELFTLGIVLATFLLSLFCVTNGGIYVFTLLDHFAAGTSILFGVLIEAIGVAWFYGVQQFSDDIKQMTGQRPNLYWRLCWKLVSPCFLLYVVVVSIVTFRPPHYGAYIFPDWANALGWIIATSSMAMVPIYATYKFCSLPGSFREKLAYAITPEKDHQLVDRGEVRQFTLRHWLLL
For assay [10], the system named is Monoamine transporters; Norepinephrine & dopamine (Rattus norvegicus). As to the kind of experiment: Selectivity ratio of DAT to that of NET receptor.
Assay [11] relates to Monoamine transporters; serotonin & dopamine (Rattus norvegicus). As to the kind of experiment: Selectivity ratio for DAT to SERT evaluated.
Assay [12] has as its system Mus musculus. Put plainly: Tested for rate of horizontal activity during a 30-min period after administration of compound at a concentration of 0.3 mg/kg. It counts as functional.
The test system of assay [13] is Mus musculus. As to the kind of experiment: Tested for rate of horizontal activity during a 30-min period after administration of compound at a concentration of 1.0 mg/kg. The format is functional.
The test system of assay [14] is Mus musculus. As to the kind of experiment: Tested for rate of horizontal activity during a 30-min period after administration of compound at a concentration of 0.1 mg/kg. The format is functional.
A short description of assay [15]: Selectivity ratio of DAT to that of NET receptor. The format is functional.
Assay [16] in a line: Selectivity ratio for DAT to SERT evaluated. It counts as functional.

Broadly, the Ki is the equilibrium dissociation constant of an inhibitor or competing ligand from its target. A low value points to higher affinity.

A value given as a limit tells only on which side of the number the result lay.

Sequence of Sodium-dependent serotonin transporter (P31652 whole entry): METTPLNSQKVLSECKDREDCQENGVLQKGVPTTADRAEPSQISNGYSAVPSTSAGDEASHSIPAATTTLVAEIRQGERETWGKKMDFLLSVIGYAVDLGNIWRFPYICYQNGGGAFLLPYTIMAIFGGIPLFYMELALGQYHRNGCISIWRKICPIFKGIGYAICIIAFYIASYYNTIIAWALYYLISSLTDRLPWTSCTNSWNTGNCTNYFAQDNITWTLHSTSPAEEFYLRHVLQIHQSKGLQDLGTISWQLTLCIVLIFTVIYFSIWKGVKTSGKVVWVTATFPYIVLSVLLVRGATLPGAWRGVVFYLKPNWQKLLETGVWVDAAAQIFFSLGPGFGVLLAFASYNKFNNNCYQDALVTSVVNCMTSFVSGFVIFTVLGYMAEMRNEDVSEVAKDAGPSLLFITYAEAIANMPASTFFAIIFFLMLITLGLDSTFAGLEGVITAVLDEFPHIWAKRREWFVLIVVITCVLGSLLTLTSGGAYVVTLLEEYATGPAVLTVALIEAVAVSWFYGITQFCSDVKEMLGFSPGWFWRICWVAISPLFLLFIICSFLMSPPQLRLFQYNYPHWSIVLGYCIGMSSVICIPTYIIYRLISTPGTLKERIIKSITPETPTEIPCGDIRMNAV

Turning to `Fc1ccc(C(OCCN2CCN(CCCc3ccccc3)CC2)c2ccc(F)cc2)cc1` [VANOXERINE], the Horizontal activity with Mus musculus [1] is reported as 175 Counts min-1; with Mus musculus [2], 175 Counts min-1; in the assay with Mus musculus [3] it was 400 Counts min-1; in the assay with Mus musculus [4], 300 Counts min-1.
With `COC(=O)[C@@H]1C2CC[C@@H](C[C@@H]1OC(=O)c1ccccc1)N2C` (single isomer, unassigned) [COCAINE], the Horizontal activity with Mus musculus [5] came to 300 Counts min-1; with Mus musculus [3], 600 Counts min-1; in the assay with Mus musculus [6], 550 Counts min-1; with Mus musculus [4], 500 Counts min-1.
In the case of `C[C@@H]1CN(CCCN(c2ccc(F)cc2)c2ccc(F)cc2)C[C@@H](C)N1CCc1ccc(Cl)c(Cl)c1`, the Ki was 4300 nM in [7], more than 100000 nM in [8] and 131 nM in assay [9].
Turning to `C[C@@H]1CN(CCCN(c2ccc(F)cc2)c2ccc(F)cc2)C[C@@H](C)N1`, the results for the Ki in assay [7], in assay [8] and in assay [9] were 13100 nM, 16900 nM and 83.2 nM, respectively. For the same compound, the Ratio in [10] was 203; in assay [11], 158.
As to `CC1CN(CCCn2c3ccccc3c3ccccc32)C[C@@H](C)N1` (single isomer, unassigned) [RIMCAZOLE], the Horizontal activity with Mus musculus [1] is given as approximately 0 Counts min-1; with Mus musculus [2] it was approximately 175 Counts min-1; with Mus musculus [3], approximately 220 Counts min-1; in the assay on Mus musculus [4] it was approximately 250 Counts min-1. In [7], this compound had a Ki of 1710 nM.
For the compound `C[C@@H]1CN(CCCN(c2ccc(F)cc2)c2ccc(F)cc2)C[C@@H](C)N1CCCc1ccccc1`, the Horizontal activity in the assay with Mus musculus [1] is approximately 50 Counts min-1; in the assay with Mus musculus [2], approximately 240 Counts min-1; with Mus musculus [3], approximately 215 Counts min-1; in the assay on Mus musculus [12] it was approximately 210 Counts min-1; in the assay on Mus musculus [13], approximately 250 Counts min-1; with Mus musculus [14] it was approximately 200 Counts min-1. The compound further displayed a Horizontal activity in the assay on Mus musculus [4] of approximately 250 Counts min-1. The inhibitory constant (Ki) came to 2130 nM in assay [7], 1020 nM in [8] and 17.6 nM in assay [9]. For the same compound, the figures for the Ratio in [10] and in [11] were 60 and 121, respectively.
As for `C[C@@H]1CN(CCCN(c2ccccc2)c2ccccc2)C[C@@H](C)N1CCc1ccc(Cl)c(Cl)c1`, the Ki in [7] is 5010 nM; in assay [8] it was more than 30000 nM; in assay [9] it was 261 nM. In addition, the Ratio in [15] is more than 115; in assay [16], 19.
With `C[C@@H]1CN(CCCN(c2ccccc2)c2ccccc2)C[C@@H](C)N1`, the values for the inhibition constant (Ki) in assay [7], in assay [8] and in assay [9] were 70900 nM, 6810 nM and 813 nM, respectively. For the same compound, the Ratio in assay [10] amounted to 8; in assay [11], 87.
`C[C@@H]1CN(CCCN(c2ccccc2)c2ccccc2)C[C@@H](C)N1CCCc1ccccc1`: the Ki came out at 1220 nM in assay [7], 3640 nM in assay [8] and 61 nM in assay [9]. Moreover, the Ratio in assay [10] came out at 60; in assay [11] it was 20.
